# Assay results taken from PubChem BioAssay (NCI).
#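 Dose response: 5 concentrations. Exposure: 48 h. Format: 96-well plates. Endpoint: linear interpolation; highest concentration if not reached. GI50: concentration for 50% inhibition of growth. TGI: concentration producing complete growth inhibition.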
# Columns and labels:
# Assay in all cases: NCI anticancer screen, dose series, 48 h
# [1] = tested on: OVCAR-3 ovarian
# [2] = tested on: SF-295 CNS
# [3] = tested on: SK-MEL-28 melanoma
# [4] = tested on: OVCAR-5 ovarian
# [5] = tested on: RXF 393 renal
# [6] = tested on: SK-MEL-5 melanoma
# [7] = tested on: SF-268 CNS
# [8] = tested on: A498 renal
# [9] = tested on: CAKI-1 renal
# [10] = tested on: MOLT-4 leukemia
# [11] = tested on: DU-145 prostate
# [12] = tested on: SW-620 colon
# [13] = tested on: SN12C renal
# [14] = tested on: TK-10 renal
# [15] = tested on: COLO 205 colon
# [16] = tested on: SF-539 CNS
# [17] = tested on: M14 melanoma
# [18] = tested on: HOP-92 NSCLC
# [19] = tested on: RPMI-8226 leukemia
# [20] = tested on: IGROV1 ovarian
# [21] = tested on: PC-3 prostate
# [22] = tested on: UACC-257 melanoma
# [23] = tested on: MDA-MB-435
# [24] = tested on: A549 NSCLC
# [25] = tested on: SK-MEL-2 melanoma
# [26] = tested on: KM12 colon
# [27] = tested on: SNB-75 CNS
# [28] = tested on: NCI-H460 lung
# [29] = tested on: NCI/ADR-RES ovarian
# [30] = tested on: HCC-2998 colon
# [31] = tested on: EKVX NSCLC
# [32] = tested on: LOX IMVI melanoma
# [33] = tested on: MDA-MB-231 breast
# [34] = tested on: HOP-62 NSCLC
# [35] = tested on: HS 578T breast
# [36] = tested on: MCF7 breast
# [37] = tested on: HL-60(TB) leukemia
# [38] = tested on: NCI-H522 lung
# [39] = tested on: U251 CNS
# [40] = tested on: SNB-19 CNS
# [41] = tested on: SR leukemia
# [42] = tested on: HT29 colon
# [43] = tested on: MALME-3M melanoma
# [44] = tested on: K-562 leukemia
# [45] = tested on: 786-0 renal
# [46] = tested on: OVCAR-8 ovarian
# [47] = tested on: SK-OV-3 ovarian
# [48] = tested on: HCT-116 colon
# [49] = tested on: NCI-H226 lung
# [50] = tested on: OVCAR-4 ovarian
# [51] = tested on: NCI-H23 lung
# [52] = tested on: UACC-62 melanoma
# [53] = tested on: T-47D breast
# [54] = tested on: HCT-15 colon
# [55] = tested on: ACHN renal
# [56] = tested on: UO-31 renal
compound,measurement,setting,value
COc1ccc(/C=C2\N=C(c3ccccc3)N(c3cc(C(F)(F)F)ccc3Cl)C2=O)cc1OC,GI50,[1],37.9 µM
same,TGI,[1],> 100 µM
same,GI50,[2],95 µM
same,TGI,[2],> 100 µM
same,GI50,[3],46.9 µM
same,TGI,[3],> 100 µM
same,GI50,[4],> 100 µM
same,TGI,[4],> 100 µM
same,GI50,[5],33.5 µM
same,TGI,[5],68.3 µM
same,GI50,[6],25 µM
same,TGI,[6],54.9 µM
same,GI50,[7],31.8 µM
same,TGI,[7],> 100 µM
same,GI50,[8],> 100 µM
same,TGI,[8],> 100 µM
same,GI50,[9],> 100 µM
same,TGI,[9],> 100 µM
same,GI50,[10],29 µM
same,TGI,[10],71.7 µM
same,GI50,[11],43.1 µM
same,TGI,[11],> 100 µM
same,GI50,[12],20.5 µM
same,TGI,[12],46.2 µM
same,GI50,[13],65.7 µM
same,TGI,[13],> 100 µM
same,GI50,[14],93.6 µM
same,TGI,[14],> 100 µM
same,GI50,[15],74 µM
same,TGI,[15],> 100 µM
same,GI50,[16],24.2 µM
same,TGI,[16],57 µM
same,GI50,[17],28.5 µM
same,TGI,[17],65.8 µM
same,GI50,[18],83.9 µM
same,TGI,[18],> 100 µM
same,GI50,[19],25.8 µM
same,TGI,[19],80.8 µM
same,GI50,[20],28.4 µM
same,TGI,[20],> 100 µM
same,GI50,[21],31.4 µM
same,TGI,[21],> 100 µM
same,GI50,[22],> 100 µM
same,TGI,[22],> 100 µM
same,GI50,[23],40.6 µM
same,TGI,[23],> 100 µM
same,GI50,[24],82 µM
same,TGI,[24],> 100 µM
same,GI50,[25],31.9 µM
same,TGI,[25],82.1 µM
same,GI50,[26],39 µM
same,TGI,[26],> 100 µM
same,GI50,[27],56.7 µM
same,TGI,[27],> 100 µM
same,GI50,[28],43 µM
same,TGI,[28],> 100 µM
same,GI50,[29],55.6 µM
same,TGI,[29],> 100 µM
same,GI50,[30],65 µM
same,TGI,[30],> 100 µM
same,GI50,[31],> 100 µM
same,TGI,[31],> 100 µM
same,GI50,[32],23.8 µM
same,TGI,[32],51.6 µM
same,GI50,[33],87 µM
same,TGI,[33],> 100 µM
same,GI50,[34],21.1 µM
same,TGI,[34],51 µM
same,GI50,[35],24.4 µM
same,TGI,[35],78.4 µM
same,GI50,[36],35.4 µM
same,TGI,[36],> 100 µM
same,GI50,[37],17.6 µM
same,TGI,[37],47.3 µM
same,GI50,[38],31.8 µM
same,TGI,[38],> 100 µM
same,GI50,[39],39 µM
same,TGI,[39],> 100 µM
same,GI50,[40],46.4 µM
same,TGI,[40],> 100 µM
same,TGI,[41],0.0635 µM
same,GI50,[42],26.9 µM
same,TGI,[42],63.1 µM
same,GI50,[43],79.7 µM
same,TGI,[43],> 100 µM
same,GI50,[44],31.2 µM
same,TGI,[44],87.6 µM
same,GI50,[45],13.8 µM
same,TGI,[45],37.3 µM
same,GI50,[46],50.8 µM
same,TGI,[46],> 100 µM
same,GI50,[47],> 100 µM
same,TGI,[47],> 100 µM
same,GI50,[48],21.4 µM
same,TGI,[48],41.4 µM
same,GI50,[49],56.6 µM
same,TGI,[49],> 100 µM
same,GI50,[50],39.2 µM
same,TGI,[50],> 100 µM
same,GI50,[51],90.6 µM
same,TGI,[51],> 100 µM
same,GI50,[52],64.3 µM
same,TGI,[52],> 100 µM
same,GI50,[53],> 100 µM
same,TGI,[53],> 100 µM
same,GI50,[54],40.7 µM
same,TGI,[54],> 100 µM
same,GI50,[55],58.1 µM
same,TGI,[55],> 100 µM
same,GI50,[56],48.4 µM
same,TGI,[56],> 100 µM
